Results reported in patent publication EP1457483A1, “Cationic lipids with serine backbone” (Ruhr-Universität Bochum, priority 2003, dated 2004).

Assays:
primary dendritic cells = test: Transfection of primary dendritic cells with lipoplexes (luciferase activity per protein content); type: cell-based, human
Method: Cell culture: SV40 transformed African green monkey kidney cell line COS-7 (ATCC CRL-1651) was routinely passaged in DMEM (GIBCO BRL, Karlsruhe, Germany), respectively, supplemented with 1% L-glutamin solution (100x), 1% Penicillin/Streptomycin solution (100x) (GIBCO BRL, Karlsruhe, Germany), and 10% FCS (BioWhittaker, Verviers, Belgium) at 37°C with 5% CO2 in humidified atmosphere. For the screening cells were maintained in 96-well culture plates (Greiner, Frickenhausen, Germany) in 100 μl DMEM, 10 % FCS, 1 % Penicillin-streptomycin in a humidified atmosphere at 37 °C/5 % CO2. 24 h prior to transfection, the cells were seeded into the microtiter plate at 10,000 cells per well to reach a confluency of 50 % at the time of transfection. […] After 5-6 days non-adherent cells were collected and purity of DCs was determined by FACS analysis using a FACSort flow cytometer (Becton Dickinson, Mountain View, CA) and the CellQuest software for data processing as recently described (Jantscheff, P. et al., J. Immunol. Methods 163(1):91-7 (1993)). […] Binding specificity was determined using IgG1 (MOPC-21), IgG2a (UPC-10), or IgG2b (MOPC-141) isotype control mAbs (SIGMA-ALDRICH Chemie, Buchs, Switzerland). […]

COS-7 cells = test: Automated lipofection screening: GFP-luciferase reporter gene transfer (luciferase activity per protein content); type: cell-based, African green monkey; details: best lipid/DNA charge ratio of 2.5, determined in each run, point is thousands separator
Method: Screening the combinatorial lipid library for lipofection properties: Goal of this first step was to compare transfection efficiency of these structurally related cationic lipids with systematically modified hydrocarbon chain compositions for the development of suitable lipofection reagents and protocols and to study the relationship between structure and transfection efficiency of this new class of cationic lipids for gene transfer. All lipids (MS-1 to MS-50, table 1) were tested using a standard protocol: From each lipid, twenty four different lipoplexes were formed containing either no helper lipid or the helper lipids DOPE and CHOL at molar amounts (1:0.5), respectively, using eight different lipid:DNA-charge ratios (LDR) from 1:1 - 15:1, resulting in a lipofection profile for each lipid. The COS-7 cell-line was used for this lipofection study since COS-7 is easy to transfect and differences between the lipids are easy to identify.
Cell culture: SV40 transformed African green monkey kidney cell line COS-7 (ATCC CRL-1651) was routinely passaged in DMEM (GIBCO BRL, Karlsruhe, Germany), respectively, supplemented with 1% L-glutamin solution (100x), 1% Penicillin/Streptomycin solution (100x) (GIBCO BRL, Karlsruhe, Germany), and 10% FCS (BioWhittaker, Verviers, Belgium) at 37°C with 5% CO2 in humidified atmosphere. For the screening cells were maintained in 96-well culture plates (Greiner, Frickenhausen, Germany) in 100 µl DMEM, 10 % FCS, 1 % Penicillin-streptomycin in a humidified atmosphere at 37 °C/5 % CO2. 24 h prior to transfection, the cells were seeded into the microtiter plate at 10,000 cells per well to reach a confluency of 50 % at the time of transfection. Dendritic cells: Dendritic cells (DC) were derived from highly purified circulating CD14(+) monocytes: In a first step, peripheral blood mononuclear leukocytes (PBL) from healthy control persons were isolated by Ficoll-Paque (Pharmacia Biotech AB, Uppsala, Sweden) density centrifugation. The following immunomagnetic purification of the monocytes from PBL was performed using CD14 Microbeads and MiniMACS high gradient magnetic separation columns (Miltenyi Biotech, Bergisch Gladbach, Germany) according to manufacturer's instructions. Isolated monocytes (5 x 10^5/well) were cultured in RPMI supplemented with 10 % FCS, or serum-free Macrophage-SFM medium (GIBCO BRL, Karlsruhe, Germany) supplemented with human recombinant GM-CSF (0.05µg/ml) and IL-4 (0.025µg/ml) (PromoCell, Heidelberg, Germany) in 6-well plates. Aliquots of the cells were reanalyzed by FACS with anti-CD14 mAbs (Pharmingen, San Diego, CA). After 5-6 days non-adherent cells were collected and purity of DCs was determined by FACS analysis using a FACSort flow cytometer (Becton Dickinson, Mountain View, CA) and the CellQuest software for data processing as recently described (Jantscheff, P. et al., J. Immunol. Methods 163(1):91-7 (1993)).

CCCCCCCC/C=C\CCCCCCCC(=O)OCC(C[N+](C)(C)C)OC(=O)CCCCCCC/C=C\CCCCCCCC (stereo not drawn) [DOTAP, N-[1-(2,3-dioleoyloxy)propyl]-N,N,N-trimethylammonium methylsulfate]
Transfection efficiencies, RLU (primary dendritic cells; helper lipid 1:0.5 at optimum lipid:DNA ratio, ± standard deviation (lu µg^-1 protein)): 235 ± 119 RLU
% DOTAP (primary dendritic cells; standardized on lipofection efficiency of DOTAP-lipoplexes set to 100%): 100%
transfection efficiency (DOTAP values) (COS-7 cells): 30.838 ± 6.363 RLU
